Values quoted from earlier work, collected in patent US20200093158A1, “COMPOSITIONS AND COMBINATIONS FOR USE AS FOOD SUPPLEMENTS FOR ANIMALS” (OmniGen Research, LLC, priority 2014, published 2020).

Assays:
larvae of common carp = details: 1.76 parts per million of NH3, after 24 hours
[1] = system: turbot (Scophthalmus maximus) juveniles
[2] = 71.5 parts per million in diet for 8 weeks; 72 hours ammonia at 0.02, 0.2, 2 ppm (not at 20 ppm); vs control shrimp

Structure (SMILES)	mortality (larvae of common carp) [%]	physiological disturbances ([1]; adapted small turbot, up to 0.4-0.5 parts per million)	mortalities ([1]; turbot juveniles, 4-6 weeks, up to 0.4 parts per million unionized ammonia, 16.5-17.5° C., pH 7.92-8.03)	survival rates under ammonia exposure [2]
N [NH3, ammonia]	50	no major physiological disturbances	no mortalities	–
CC1=C(/C=C/C(C)=C/C=C/C(C)=C/C=C/C=C(C)/C=C/C=C(C)/C=C/C2=C(C)C(=O)[C@@H](O)CC2(C)C)C(C)(C)C[C@H](O)C1=O [astaxanthin]	–	–	–	higher
